Laboratory results as given in ChEMBL document CHEMBL4392878, “Guaiane-Type Sesquiterpenoids from the Roots of Daphne genkwa and Evaluation of Their Neuroprotective Effects” (2019).

Experiments:
Format in all cases: functional
[1] = tested on: SH-SY5Y; experiment: Neuroprotective activity in human SH-SY5Y cells assessed as reduction in H2O2-induced cell damage by measuring cell viability level at 12.5 uM by MTT assay (reference value: 67.95%)
[2] = tested on: SH-SY5Y; experiment: Neuroprotective activity in human SH-SY5Y cells assessed as reduction in H2O2-induced apoptosis by measuring viable cells level at 12.5 uM by annexin V-FITC and propidium iodide staining based flow cytometry (reference value: 76.7%)
[3] = tested on: SH-SY5Y; experiment: Neuroprotective activity in human SH-SY5Y cells assessed as reduction in H2O2-induced apoptosis by measuring early apoptotic cells level at 12.5 uM by annexin V-FITC and propidium iodide staining based flow cytometry (reference value: 11.3%); parameters: scale not given: the % may be the effect or the level left
[4] = tested on: SH-SY5Y; experiment: Neuroprotective activity in human SH-SY5Y cells assessed as reduction in H2O2-induced apoptosis by measuring late apoptotic cells level at 12.5 uM by annexin V-FITC and propidium iodide staining based flow cytometry (reference value: 5.26%); parameters: scale not given: the % may be the effect or the level left
[5] = tested on: SH-SY5Y; experiment: Neuroprotective activity in human SH-SY5Y cells assessed as reduction in H2O2-induced apoptosis by measuring necrotic cells level at 12.5 uM by annexin V-FITC and propidium iodide staining based flow cytometry (reference value: 6.69%); parameters: scale not given: the % may be the effect or the level left
[6] = tested on: SH-SY5Y; experiment: Neuroprotective activity in human SH-SY5Y cells assessed as reduction in H2O2-induced cell damage by measuring cell viability level at 50 uM by MTT assay (reference value: 67.95%)

## CC1=C[C@@]2(O)OC(=O)C(C)=C2C[C@H]2[C@@H](C)CC[C@@]12O
[1]
  Activity: 75.64%
[2]
  Activity: 87.7%
[3]
  Activity: 4.25%
[4]
  Activity: 2.7%
[5]
  Activity: 5.37%

## CC1=C(C[C@@H]2/C(=C(/C)CO)CC[C@@H]2C)C(=O)OC1
[1]
  Activity: 79.94%
[2]
  Activity: 79.2%
[3]
  Activity: 5.41%
[4]
  Activity: 3.29%
[5]
  Activity: 12.1%

## Cc1c(C)c2c(c(C)c1O)CCC(C)(C(=O)O)O2 (stereo unspecified) [TROLOX]
[6]
  Activity: 78.65%

## CC1=C2CC[C@H](C)[C@@H]2C[C@H]2C(=O)[C@@H]1OC[C@@]2(O)CO
[1]
  Activity: 79.34%
[2]
  Activity: 87.7%
[3]
  Activity: 4.19%
[4]
  Activity: 2.67%
[5]
  Activity: 5.41%
